Reference: publication PMC11215747, “Improved Rigidin-Inspired Antiproliferative Agents with Modifications on the 7-Deazahypoxanthine C7/C8 Ring Systems” (Journal of Medicinal Chemistry, 2024)
“Also recorded” adds a separate entry of the source. Like-named read-outs stand apart in the source and are kept apart here. Each block holds one compound with its values, some of them ahead of it.

What was measured:
[1] = test system: PNT1A cells; experiment: MTT cytotoxicity assay against normal epithelial cell line PNT1A; format: cell-based; settings: molecular formula strings CSV, read-out: PNT1A GI50
Procedure: (§1) The 3-(4,5-dimethylthiazol-2-yl)-2,5-diphenyltetrazolium bromide (MTT) assay was employed to evaluate the antiproliferative activities of the synthesized 7-deazahypoxathine analogues. The HeLa, PNT1A, or PANC-1 cell lines were assessed by trypsinizing and seeding 4 × 10^3 cells per well into 96-well plates. Synthesized compounds were dissolved in DMSO at a concentration of either 50 mM or 100 mM before cell treatment. Cells were grown for 24 h and then treated with compounds at concentrations ranging from 0.04 to 100 μM and incubated for 48 h in 200 μL media. Twenty microliters of MTT reagent in serum-free medium (5 mg/mL) was added to each well and incubated further for 2 h. Media was removed and the resulting formazan crystals were resolubilized in 200 μL of DMSO. A Thermomax Molecular Device plate reader was utilized to measure A490. Experiments were performed in quadruplicate and repeated at least twice for each compound. The control comprised of cells treated with 0.1% DMSO. One micromolar phenyl arsine oxide (PAO) was utilized as a positive killing control.

[2] = test system: HeLa cells; experiment: Annexin V apoptosis assay and cell-fate tracking in HeLa cells; format: cell-based, Human; settings: 20 nM; for apoptosis at the 30 hour time point (Annexin V fluorescence): 6 biological replicates, one-way ANOVA amongst compounds; for total numbers of cells that died following mitotic arrest: single-cell tracking, >130 cells per treatment
Procedure: To directly assess apoptosis in living cells, HeLa cells were plated (six biological replicates per condition) in 96-well Imagelock Plates (Sartorius BA-04855) at a density of 1,562.5 cells/cm^2. The following day, cells were placed in media containing IncuCyte Annexin V Dye (Sartorius 4642) supplemented with either 0.1% Dimethyl sulfoxide or test compounds (20 nM), and plates were placed in a Sartorius Incucyte S3 live cell imaging system. Plates were scanned hourly, with phase contrast and green fluorescence images were acquired at three positions per well. Raw fluorescence data was processed using Incucyte software, and Prism Graphpad was used for data visualization and statistical analysis. To track individual cell fates, combined phase contrast/fluorescence time lapse sequences were exported from multiple wells per condition, and cell fates individual cells were scored and tabulated using Graphpad Prism software.

[3] = test system: HeLa cells; experiment: Microtubule organization by immunolabeling in HeLa cells; format: cell-based, Human; settings: 4 h; for effect on interphase microtubules / effect on spindle morphology: at GI50 concentrations
Procedure: To examine microtubule morphology in rigidin-treated cells, HeLa cells were incubated for 4 h in the presence or absence of test compound before being fixed with 3.7% formaldehyde in PBS and permeabilized with 0.1% Triton X-100 in PBS. After blocking the cells with 3% bovine serum albumin in PBS, they were probed with antibodies for the centromere marker CENP-B (Abcam, code ab25734) and tubulin (Sigma, code sc-53029), which were detected with Alexa Fluor-labeled secondary antibodies (Thermofisher). Hoechst 33342 (1 mg/mL, Thermofisher H3570) was used to stain DNA. Samples were mounted on glass slides and imaged using Andor Dragonfly 505 spinning disk confocal system mounted on an Olympus IX83 inverted microscope. Figures were created with Adobe Photoshop CS5. All drugs were resuspended in DMSO, and 0.1% DMSO served as a carrier control.

[4] = test system: HeLa cells; experiment: MTT antiproliferative assay against HeLa cells; format: cell-based, Human
Procedure: as §1, with “control. […]” for “control.”

[5] = target: T1, tubulin (Sus scrofa, UniProt P02554); experiment: Fluorescence-based tubulin polymerization assay; format: biochemical; settings: relative to 1% DMSO control
T1 construct: purchased Cytoskeleton, Inc
T1 sequence (P02554 whole entry): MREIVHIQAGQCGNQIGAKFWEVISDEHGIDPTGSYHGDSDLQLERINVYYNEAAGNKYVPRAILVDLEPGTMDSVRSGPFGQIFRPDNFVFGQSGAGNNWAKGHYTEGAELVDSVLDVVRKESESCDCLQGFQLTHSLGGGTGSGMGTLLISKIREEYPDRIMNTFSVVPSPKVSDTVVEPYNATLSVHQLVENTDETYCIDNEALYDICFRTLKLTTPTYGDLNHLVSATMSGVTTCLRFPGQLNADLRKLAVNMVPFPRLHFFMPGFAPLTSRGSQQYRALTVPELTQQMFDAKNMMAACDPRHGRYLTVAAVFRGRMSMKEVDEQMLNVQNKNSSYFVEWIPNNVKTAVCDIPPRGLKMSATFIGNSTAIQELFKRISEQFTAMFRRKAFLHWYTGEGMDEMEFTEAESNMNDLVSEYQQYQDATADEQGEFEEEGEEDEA
T1 sequence (P02550 whole entry partner): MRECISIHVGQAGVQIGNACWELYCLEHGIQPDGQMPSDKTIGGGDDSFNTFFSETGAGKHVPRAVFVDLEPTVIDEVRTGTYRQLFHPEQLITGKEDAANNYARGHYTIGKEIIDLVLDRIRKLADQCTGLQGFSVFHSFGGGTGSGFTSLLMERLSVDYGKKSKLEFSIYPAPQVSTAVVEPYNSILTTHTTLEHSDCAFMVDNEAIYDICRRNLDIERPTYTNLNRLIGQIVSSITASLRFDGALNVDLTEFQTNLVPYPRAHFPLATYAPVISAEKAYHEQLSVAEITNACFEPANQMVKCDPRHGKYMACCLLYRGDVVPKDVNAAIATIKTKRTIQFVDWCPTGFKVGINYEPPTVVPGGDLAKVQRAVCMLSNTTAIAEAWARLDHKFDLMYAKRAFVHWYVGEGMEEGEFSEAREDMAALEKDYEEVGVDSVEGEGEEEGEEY
Procedure: The fluorescence-based tubulin polymerization assay from Cytoskeleton, Inc. was used. […] The tubulin reaction mixture was prepared per manufacturer’s instructions, kept on ice, and used within ∼15 min of preparation. A Biotek Synergy H4 hybrid multimode plate reader was preheated to 37 °C. Prior to starting the assay, a half-area black 96-well plate was preheated within the plate reader. A volume of 5 μL of each of the tested samples was pipetted into separate wells of the plate and incubated in the warm plate reader for 1 min.

[6] = Stability of compound in solution; format: physicochemical; settings: in solution / over time
[7] = parameters: method as in PMID 23927793; settings: cell line not given; cited from earlier work
[8] = Aqueous solubility by laser nephelometry; format: physicochemical; settings: initial analysis
[9] = 25 μM, averaged from two experiments
[10] = Homo sapiens, MTT assay, 48 h treatment, relative to DMSO control, two independent determinations, each in quadruplicate, read-out: GI50 (μM)± SD
[11] = Homo sapiens, MTT, 48 h, average and SD from two independent determinations, each in quadruplicate (footnote c), read-out: GI50 (μM) ± SD

Compound: 5-(3,5-Difluorophenyl)-6-[4-(2-ethoxyethoxy)benzoyl]-2-(pent-4-yn-1-yl)-1,7-dihydro-4H-pyrrolo[2,3-d]pyrimidin-4-one [Compound 60]
GI50 [1]: 0.048 ± 0.01 µM | apoptosis at the 30 hour time point (Annexin V fluorescence) [2]: no significant differences | total numbers of cells that died following mitotic arrest [2]: 85% | effect on interphase microtubules [3]: no striking effects on interphase microtubules | effect on spindle morphology [3]: remarkable effects on the spindle morphology

Compound: 6-[4-(2-Ethoxyethoxy)benzoyl]-5-(3-fluorophenyl)-2-(pent-4-yn-1-yl)-1,7-dihydro-4H-pyrrolo[2,3-d]pyrimidin-4-one [Compound 59]
GI50 ([4]; MTT, 48 h, average of eight repeats determined over 5 weeks (footnote d), read-out: GI50 (μM) ± SD): 0.016 ± 0.004 µM | GI50 [1]: 0.041 ± 0.011 µM | effect on in vitro tubulin polymerization [5, 9]: potent inhibition of microtubule assembly; also recorded: completely suppress tubulin polymerization | apoptosis at the 30 hour time point (Annexin V fluorescence) [2]: no significant differences | total numbers of cells that died following mitotic arrest [2]: 87% | effect on interphase microtubules [3]: no striking effects on interphase microtubules | effect on spindle morphology [3]: remarkable effects on the spindle morphology

Compound: 6-[4-(2-Ethoxyethoxy)benzoyl]-5-(6-fluoropyridin-2-yl)-2-(pent-4-yn-1-yl)-1,7-dihydro-4H-pyrrolo[2,3-d]pyrimidin-4-one [Compound 61]
GI50 ([4]; tested once, compound degraded in solution, read-out: GI50): 0.0224 µM | stability [6]: unstable over time; also recorded: clear degradation of the compound in solution

Compound: C#CCCCc1nc(=O)c2c(-c3ccccc3C)c(C(=O)c3ccccc3)[nH]c2[nH]1 [Compound 13, 6-Benzoyl-2-(pent-4-yn-1-yl)-5-(o-tolyl)-1,7-dihydro-4H-pyrrolo[2,3-d]pyrimidin-4-one]
GI50 [4, 10]: 0.142 ± 0.044 µM

Compound: C#CCCCc1nc(=O)c2c(-c3c(C)cccc3C)c(C(=O)c3ccccc3)[nH]c2[nH]1 [Compound 14, 6-Benzoyl-5-(2,6-dimethylphenyl)-2-(pent-4-yn-1-yl)-1,7-dihydro-4H-pyrrolo[2,3-d]pyrimidin-4-one]
GI50 [4, 10]: 2.3 ± 0.09 µM

Compound: C#CCCCc1nc(=O)c2c(-c3ccc(N4CCOCC4)cc3)c(C(=O)c3ccccc3)[nH]c2[nH]1 [Compound 15, 6-Benzoyl-5-(4-morpholinophenyl)-2-(pent-4-yn-1-yl)-1,7-dihydro-4H-pyrrolo[2,3-d]pyrimidin-4-one]
decrease in antiproliferative activity compared to lead compound 1 [4]: 500 fold | GI50 [4, 10]: 11.3 ± 0.65 µM

Compound: C#CCCCc1nc(=O)c2c(-c3ccccc3)c(C(=O)c3ccccc3C)[nH]c2[nH]1 [Compound 21, 6-(2-Methylbenzoyl)-2-(pent-4-yn-1-yl)-5-phenyl-1,7-dihydro-4H-pyrrolo[2,3-d]pyrimidin-4-one]
GI50 [4, 10]: 0.062 ± 0.005 µM | GI50 ([1]; Homo sapiens, PNT1A): 0.053 ± 0.012 µM

Compound: C#CCCCc1nc(=O)c2c(-c3ccccc3)c(C(=O)c3ccc(N4CCOCC4)cc3)[nH]c2[nH]1 [Compound 27, 6-(4-Morpholinobenzoyl)-2-(pent-4-yn-1-yl)-5-phenyl-1,7-dihydro-4H-pyrrolo[2,3-d]pyrimidin-4-one]
GI50 [4, 10]: 0.025 ± 0.002 µM | GI50 ([1]; Homo sapiens, PNT1A): 0.049 ± 0.02 µM

Compound: O=C(c1ccc(OCc2ccccc2)cc1)c1[nH]c2[nH]cnc(=O)c2c1-c1ccccc1 [Compound 32]
GI50 [7]: 0.045 ± 0.004 µM

Now from value to compound, other results behind:

GI50 [4, 10]: 0.043 ± 0.002 µM
Compound: CC#CCCc1nc(=O)c2c(-c3ccccc3)c(C(=O)c3ccc(N4CCOCC4)cc3)[nH]c2[nH]1 [Compound 30, 6-(4-Morpholinobenzoyl)-2-(pent-3-yn-1-yl)-5-phenyl-1,7-dihydro-4H-pyrrolo[2,3-d]pyrimidin-4-one]
reduction in activity following isomerization to the internal alkyne ([4]; terminal versus internal alkyne analogues (1, 27 vs 31, 30)): 2 fold

GI50 [4, 11]: 0.444 ± 0.03 µM | aqueous solubility relative to the other compounds [8]: significantly more soluble
Compound: C#CCCCc1nc(=O)c2c(-c3ccccc3)c(C(=O)c3ccc(OCCN4CCOCC4)cc3)[nH]c2[nH]1 [Compound 34, 6-[4-(2-Morpholinoethoxy)benzoyl]-2-(pent-4-yn-1-yl)-5-phenyl-1,7-dihydro-4H-pyrrolo[2,3-d]pyrimidin-4-one]
decrease in antiproliferative activity compared to lead compound 1 [4]: ~20 fold | effect on in vitro tubulin polymerization [5, 9]: potent inhibition of microtubule assembly; also recorded: completely suppress tubulin polymerization | effect on interphase microtubules [3]: no striking effects on interphase microtubules | effect on spindle morphology [3]: remarkable effects on the spindle morphology | syntelic chromosome attachments ([3]; lower concentrations (GI25)): still prevalent

GI50 [4, 11]: 2.87 ± 0.103 µM | aqueous solubility relative to the other compounds [8]: significantly more soluble
Compound: C#CCCCc1nc(=O)c2c(-c3ccccc3)c(C(=O)c3ccc(OCCN4CCCC4)cc3)[nH]c2[nH]1 [Compound 35, 2-(Pent-4-yn-1-yl)-5-phenyl-6-{4-[2-(pyrrolidin-1-yl)ethoxy]benzoyl}-1,7-dihydro-4H-pyrrolo[2,3-d]pyrimidin-4-one]
decrease in antiproliferative activity compared to lead compound 1 [4]: ~150 fold

effect on in vitro tubulin polymerization ([5]; 3 μM): promotes microtubule formation
Compound: CC(=O)O[C@H]1C(=O)[C@@]2(C)[C@H]([C@H](OC(=O)c3ccccc3)[C@]3(O)C[C@H](OC(=O)[C@H](O)[C@@H](NC(=O)c4ccccc4)c4ccccc4)C(C)=C1C3(C)C)[C@]1(OC(C)=O)CO[C@@H]1C[C@@H]2O [Paclitaxel, paclitaxel, reference compound]
effect on in vitro tubulin polymerization ([5]; 3 μM, listed as paclitaxel): potent enhancement of microtubule formation
